# Reference: publication PMC11330417, “Insights into the transglucosylation activity of α-glucosidase from Schwanniomyces occidentalis” (Applied Microbiology and Biotechnology, 2024)
# Biological target: T1, α-glucosidase GAM1p (Schwanniomyces occidentalis, UniProt Q401B1, S845A)
# T1 construct: gene GAM1; full-length gene with own signal peptide of 22 residues (960 aa precursor), no tag (native stop codon), AOX1 promoter vector pIB4, secreted by Komagataella phaffii GS115; glycosylated, about 143 kDa; concentrated on 50-kDa membrane
# Assay: HPLC-PAD, MS and NMR of glucosylated products
# Assay type: biochemical
# Conditions: glucosyl acceptor; 20 mM piceid, 300 g/L maltose as donor, 20% DMSO, sodium acetate pH 4.5, 37 °C
# T1 sequence (Q401B1 entry or part of it S845A): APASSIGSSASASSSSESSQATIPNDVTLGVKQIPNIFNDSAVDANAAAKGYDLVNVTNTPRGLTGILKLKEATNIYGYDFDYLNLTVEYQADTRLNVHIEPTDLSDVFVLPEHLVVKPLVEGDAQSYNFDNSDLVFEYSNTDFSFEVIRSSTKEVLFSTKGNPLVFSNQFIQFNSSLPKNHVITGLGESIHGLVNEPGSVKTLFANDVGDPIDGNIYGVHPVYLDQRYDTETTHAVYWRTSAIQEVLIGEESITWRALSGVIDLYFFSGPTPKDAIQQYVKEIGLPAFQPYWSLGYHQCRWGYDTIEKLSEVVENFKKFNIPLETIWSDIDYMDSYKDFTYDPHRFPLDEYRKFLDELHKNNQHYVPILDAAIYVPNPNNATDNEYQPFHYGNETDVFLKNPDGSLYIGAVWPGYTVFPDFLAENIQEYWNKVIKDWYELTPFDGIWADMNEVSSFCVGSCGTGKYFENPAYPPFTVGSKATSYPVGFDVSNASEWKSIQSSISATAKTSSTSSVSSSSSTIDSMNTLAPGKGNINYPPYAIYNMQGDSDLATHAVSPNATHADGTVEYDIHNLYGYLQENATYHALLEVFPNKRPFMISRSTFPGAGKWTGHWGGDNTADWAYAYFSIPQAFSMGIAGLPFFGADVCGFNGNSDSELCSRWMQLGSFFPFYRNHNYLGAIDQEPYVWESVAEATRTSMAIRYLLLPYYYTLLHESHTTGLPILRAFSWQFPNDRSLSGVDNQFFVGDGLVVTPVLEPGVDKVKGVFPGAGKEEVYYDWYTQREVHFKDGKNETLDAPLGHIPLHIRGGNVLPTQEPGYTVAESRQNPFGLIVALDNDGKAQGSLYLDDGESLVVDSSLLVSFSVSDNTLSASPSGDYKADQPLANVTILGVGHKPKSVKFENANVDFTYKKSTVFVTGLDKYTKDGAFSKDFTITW
smiles,measurement,value
OC[C@H]1O[C@@H](Oc2cc(O)cc(/C=C/c3ccc(O)cc3)c2)[C@H](O)[C@@H](O)[C@@H]1O (mixture of isomers) [piceid],"HPLC-PAD, MS and NMR of glucosylated products",GAM1p was only able to glycosylate piceid (polydatin)
